Results as given in patent publication US20260102356A1, “METHOD FOR LOADING DIMERIC CD24 INTO HEK293 CELL EXTRACELLULAR VESICLES WITH ADAM10 GENE KNOCKED OUT” (Exocure Sweden AB, priority 2022, published 2026).
“And” between values parts separate entries of the source, which are not always exact repeats. Equal entries are not always repeated.

What was measured:
Type in all cases: cell-based, human
PBMCs [1] = test: PBMC inflammation model (anti-CD3/anti-CD28), IFN-γ in supernatant, Example 2; conditions: anti_hCD3 + anti_hCD28 1 μg/mL, treatment 10 μg/mL, 72 h
Experimental: (§1) Detection of the immunosuppressive activity of different EVs and proteins in a PBMC inflammation model: PBMCs were used for the experiment. An inflammation model was established by using 1 μg/ml anti-human CD3 Antibody (coated) and 1 μg/ml anti-human CD28 Antibody (free). The positive drug (dexamethasone), free CD24-Fc protein, and various doses of engineered dimeric CD24-loaded EV and monomer CD24-loaded EV were administered for 72 h, and their inhibitory activity on the inflammatory response of PBMCs was assessed.

PBMCs [2] = test: PBMC inflammation model (anti-CD3/anti-CD28), IFN-γ in supernatant, Example 4; conditions: for IFN-γ_pg/mL-Mean / Detected IFN-γ concentration: PBMC supernatant, anti_hCD3 + anti_hCD28 1 μg/mL, treatment 10 μg/mL, 72 h; for Detected IFN-γ concentration: single replicates
Experimental: as §1, with “using […] anti-human CD3” for “using 1 μg/ml anti-human CD3”, “(dexamethasone), free ApoE protein, and” for “(dexamethasone), free CD24-Fc protein, and”, “engineered dimeric ApoE-loaded EV were” for “engineered dimeric CD24-loaded EV and monomer CD24-loaded EV were”

PBMCs [3] = test: PBMC inflammation model (anti-CD3/anti-CD28), IFN-γ in supernatant, Example 6
Experimental: • (1) Preparation of dimeric CD24-Exosomes: The plasmid construction, cell line screening and exosome preparation processes were consistent with those in Example 1. • (2) Loading of MyD88 Inhibitor Polypeptide: dimeric CD24 exosomes were mixed well with MyD88 inhibitor polypeptide (1 mg of MyD88 added to 1E+12 exosome particles). The solution was adjusted to a pH of 8.0 (or 9.0, 10.0) with Na2CO3, and then purified using Capto core700 to remove free MyD88 inhibitor polypeptide. The flow-through was collected to obtain CD24 exosomes loaded with MyD88 inhibitor polypeptide. The loading amount of MyD88 inhibitor polypeptide was assessed using ELISA (peptide loading technology referenced in patent: 202111263036.5). • (3) Detection of the immunosuppressive activity of different EVs and proteins in a PBMC inflammation model: PBMCs were used for the experiment. An inflammation model was established by using 1 μg/ml anti-human CD3 Antibody (coated) and 1 μg/ml anti-human CD28 Antibody (free). The positive drug (dexamethasone), free CD24-Fc fusion protein, and various doses of engineered dimeric CD24 loaded-EV and engineered dimeric CD24+MyD88 inhibitor polypeptide loaded-EV were administered for 72 h or 120 h, and their inhibitory activity on the inflammatory response of PBMCs was assessed

[4] = in vitro PBMC inflammation model

Row | Molecule | IFN-γ_pg/mL-Mean (PBMCs [1]) | Detected IFN-γ concentration (PBMCs [1]; single replicates) | IFN-γ_pg/mL-Mean (PBMCs [2]) | Detected IFN-γ concentration (PBMCs [2]) | IFN-γ_pg/mL-Mean (PBMCs [3]; PBMC supernatant, treatment time 72 h, treatment 10 μg/mL) | Detected IFN-γ concentration (PBMCs [3]; PBMC supernatant, treatment time 72 h, treatment 10 μg/mL, single replicates) | inflammation inhibitory activity compared to the model group (PBMCs [2]; [4]) | inflammation inhibitory activity compared to the model group (PBMCs [3]; [4])
1 | C[C@@H]1C[C@H]2[C@@H]3CCC4=CC(=O)C=C[C@]4(C)[C@@]3(F)[C@@H](O)C[C@]2(C)[C@@]1(O)C(=O)CO [Dexamethasone, dexamethasone] | 6.0 pg/mL | 5.62 pg/mL and 5.78 pg/mL and 6.51 pg/mL | 5.8 pg/mL | 5.5 pg/mL and 5.8 pg/mL and 6.2 pg/mL | 4.5 pg/mL | 4.32 pg/mL and 4.76 pg/mL and 4.5 pg/mL |  | 
2 | ApoE: free ApoE protein, comparator |  |  | 18092.0 pg/mL | 18563 pg/mL and 17689 pg/mL and 18024 pg/mL |  |  | better inflammation inhibitory activity | better inflammation inhibitory activity
